Columns and labels:
[1] = target: T1, Alpha-2C adrenergic receptor (Homo sapiens, UniProt P18825); type: functional
T1 sequence (P18825 whole entry): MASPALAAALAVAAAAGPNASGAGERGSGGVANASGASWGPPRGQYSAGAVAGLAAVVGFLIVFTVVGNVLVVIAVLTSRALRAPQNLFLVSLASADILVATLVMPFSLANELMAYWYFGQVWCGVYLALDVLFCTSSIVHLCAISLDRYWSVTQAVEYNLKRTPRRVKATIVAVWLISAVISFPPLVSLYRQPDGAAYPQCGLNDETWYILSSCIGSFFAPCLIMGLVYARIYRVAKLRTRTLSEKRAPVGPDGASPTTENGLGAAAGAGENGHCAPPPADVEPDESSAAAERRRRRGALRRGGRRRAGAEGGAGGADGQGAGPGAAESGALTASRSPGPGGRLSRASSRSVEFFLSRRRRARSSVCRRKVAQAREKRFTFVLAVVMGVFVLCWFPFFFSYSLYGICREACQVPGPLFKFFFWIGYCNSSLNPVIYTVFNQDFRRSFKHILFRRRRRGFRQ

Vasopressin V2 receptor = Vasopressin V2 receptor (Homo sapiens, UniProt P30518)
[2] = target: T2, Gastrin/cholecystokinin type B receptor (Homo sapiens, UniProt P32239)
T2 sequence (P32239 whole entry): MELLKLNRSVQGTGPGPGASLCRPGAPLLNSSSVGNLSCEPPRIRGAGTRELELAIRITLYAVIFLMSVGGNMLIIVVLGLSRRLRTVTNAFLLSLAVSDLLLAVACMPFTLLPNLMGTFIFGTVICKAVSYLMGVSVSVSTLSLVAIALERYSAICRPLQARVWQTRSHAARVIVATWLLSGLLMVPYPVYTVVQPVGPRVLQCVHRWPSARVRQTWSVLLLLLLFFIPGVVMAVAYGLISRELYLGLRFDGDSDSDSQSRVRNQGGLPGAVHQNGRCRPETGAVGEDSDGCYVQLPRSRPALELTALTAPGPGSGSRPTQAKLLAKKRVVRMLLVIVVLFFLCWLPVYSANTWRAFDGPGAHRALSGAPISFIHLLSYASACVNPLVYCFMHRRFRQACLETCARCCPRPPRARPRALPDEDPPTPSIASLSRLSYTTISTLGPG

Cannabinoid receptor 1 = Cannabinoid receptor 1 (Homo sapiens, UniProt P21554); type: functional, cell-based
D(1A) dopamine receptor = D(1A) dopamine receptor (Homo sapiens, UniProt P21728); type: functional, cell-based
[3] = target: Gamma-aminobutyric acid receptor subunit alpha-1 (Rattus norvegicus, UniProt P62813); type: functional
Histamine H2 receptor = Histamine H2 receptor (Homo sapiens, UniProt P25021); type: functional, cell-based
[4] = target: T3, 5-hydroxytryptamine receptor 2C (Homo sapiens, UniProt P28335)
T3 sequence (P28335 whole entry): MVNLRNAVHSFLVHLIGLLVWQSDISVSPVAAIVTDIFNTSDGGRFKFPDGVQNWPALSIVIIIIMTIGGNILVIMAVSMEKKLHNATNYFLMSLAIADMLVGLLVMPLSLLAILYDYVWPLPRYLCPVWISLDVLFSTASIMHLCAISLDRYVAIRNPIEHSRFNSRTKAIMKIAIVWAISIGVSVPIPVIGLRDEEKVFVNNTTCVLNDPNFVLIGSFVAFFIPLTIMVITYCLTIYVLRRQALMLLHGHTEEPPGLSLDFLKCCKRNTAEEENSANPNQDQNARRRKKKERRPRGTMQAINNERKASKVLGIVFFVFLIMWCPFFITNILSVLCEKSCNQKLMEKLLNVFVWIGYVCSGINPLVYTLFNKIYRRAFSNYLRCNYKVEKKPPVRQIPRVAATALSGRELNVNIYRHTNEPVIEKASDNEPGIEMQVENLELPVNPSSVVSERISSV

[5] = target: Voltage-gated inwardly rectifying potassium channel KCNH2 (Homo sapiens, UniProt Q12809); type: functional
[6] = target: Sodium-dependent dopamine transporter (Homo sapiens, UniProt Q01959)
[7] = target: T4, Alpha-1A adrenergic receptor (Homo sapiens, UniProt P35348); type: functional, cell-based
T4 sequence (P35348 whole entry): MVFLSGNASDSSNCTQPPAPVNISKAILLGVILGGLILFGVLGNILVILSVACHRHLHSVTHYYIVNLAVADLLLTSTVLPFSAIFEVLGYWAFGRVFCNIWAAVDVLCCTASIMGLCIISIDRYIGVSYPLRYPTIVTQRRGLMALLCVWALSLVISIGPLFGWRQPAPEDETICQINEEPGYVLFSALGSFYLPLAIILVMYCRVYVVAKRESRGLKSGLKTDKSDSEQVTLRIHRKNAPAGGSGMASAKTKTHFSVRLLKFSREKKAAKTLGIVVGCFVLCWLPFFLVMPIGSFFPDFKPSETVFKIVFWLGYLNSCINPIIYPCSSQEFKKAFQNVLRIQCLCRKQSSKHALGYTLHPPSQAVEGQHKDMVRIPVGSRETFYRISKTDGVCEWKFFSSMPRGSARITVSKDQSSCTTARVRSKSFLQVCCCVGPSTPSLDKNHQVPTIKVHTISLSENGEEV

[8] = target: T5, Equilibrative nucleoside transporter 1 (Homo sapiens, UniProt Q99808)
T5 sequence (Q99808 whole entry): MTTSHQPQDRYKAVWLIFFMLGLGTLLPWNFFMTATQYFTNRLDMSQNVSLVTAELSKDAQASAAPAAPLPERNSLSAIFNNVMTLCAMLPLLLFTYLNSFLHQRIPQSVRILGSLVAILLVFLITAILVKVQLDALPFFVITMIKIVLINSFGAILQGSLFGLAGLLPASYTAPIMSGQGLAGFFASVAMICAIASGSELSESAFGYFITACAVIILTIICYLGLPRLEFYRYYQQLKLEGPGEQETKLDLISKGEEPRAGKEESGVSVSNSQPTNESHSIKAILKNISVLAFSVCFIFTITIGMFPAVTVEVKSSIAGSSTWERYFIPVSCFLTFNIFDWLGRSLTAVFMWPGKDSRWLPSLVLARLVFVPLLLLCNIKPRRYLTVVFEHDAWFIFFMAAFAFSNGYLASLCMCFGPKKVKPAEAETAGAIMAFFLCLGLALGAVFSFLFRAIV
Note: assay procedure not described here.

Sequence of Voltage-gated inwardly rectifying potassium channel KCNH2 (Q12809 whole entry): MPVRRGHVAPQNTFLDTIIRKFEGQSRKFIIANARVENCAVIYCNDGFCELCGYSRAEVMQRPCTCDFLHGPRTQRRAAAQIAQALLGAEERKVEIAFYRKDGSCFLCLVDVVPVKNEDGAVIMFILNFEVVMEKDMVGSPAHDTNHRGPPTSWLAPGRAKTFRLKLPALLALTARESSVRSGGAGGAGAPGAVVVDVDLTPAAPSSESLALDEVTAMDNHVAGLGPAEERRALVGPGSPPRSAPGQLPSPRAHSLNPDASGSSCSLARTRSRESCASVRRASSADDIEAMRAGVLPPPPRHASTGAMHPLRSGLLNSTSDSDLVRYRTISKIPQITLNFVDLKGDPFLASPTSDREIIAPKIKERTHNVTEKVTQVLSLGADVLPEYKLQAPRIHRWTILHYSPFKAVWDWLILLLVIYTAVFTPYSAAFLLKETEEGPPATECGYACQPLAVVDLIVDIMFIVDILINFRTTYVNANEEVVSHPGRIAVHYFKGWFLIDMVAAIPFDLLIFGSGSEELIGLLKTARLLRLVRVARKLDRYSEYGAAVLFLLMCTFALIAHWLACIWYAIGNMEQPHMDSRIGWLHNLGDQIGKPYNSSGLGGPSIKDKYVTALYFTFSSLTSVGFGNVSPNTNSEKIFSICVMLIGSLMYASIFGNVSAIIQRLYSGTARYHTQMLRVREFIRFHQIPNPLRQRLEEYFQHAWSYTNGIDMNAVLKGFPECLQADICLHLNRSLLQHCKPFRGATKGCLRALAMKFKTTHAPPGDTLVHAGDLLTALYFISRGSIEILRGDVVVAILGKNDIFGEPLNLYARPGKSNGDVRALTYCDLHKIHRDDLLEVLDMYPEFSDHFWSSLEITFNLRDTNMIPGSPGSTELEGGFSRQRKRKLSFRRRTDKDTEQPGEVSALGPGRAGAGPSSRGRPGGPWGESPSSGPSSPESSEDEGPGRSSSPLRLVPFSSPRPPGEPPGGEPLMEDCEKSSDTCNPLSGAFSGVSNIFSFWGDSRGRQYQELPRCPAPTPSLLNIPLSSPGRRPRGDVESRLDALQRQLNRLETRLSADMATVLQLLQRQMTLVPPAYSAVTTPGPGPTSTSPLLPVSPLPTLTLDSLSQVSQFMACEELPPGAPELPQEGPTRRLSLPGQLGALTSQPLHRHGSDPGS
Sequence of Sodium-dependent dopamine transporter (Q01959 whole entry): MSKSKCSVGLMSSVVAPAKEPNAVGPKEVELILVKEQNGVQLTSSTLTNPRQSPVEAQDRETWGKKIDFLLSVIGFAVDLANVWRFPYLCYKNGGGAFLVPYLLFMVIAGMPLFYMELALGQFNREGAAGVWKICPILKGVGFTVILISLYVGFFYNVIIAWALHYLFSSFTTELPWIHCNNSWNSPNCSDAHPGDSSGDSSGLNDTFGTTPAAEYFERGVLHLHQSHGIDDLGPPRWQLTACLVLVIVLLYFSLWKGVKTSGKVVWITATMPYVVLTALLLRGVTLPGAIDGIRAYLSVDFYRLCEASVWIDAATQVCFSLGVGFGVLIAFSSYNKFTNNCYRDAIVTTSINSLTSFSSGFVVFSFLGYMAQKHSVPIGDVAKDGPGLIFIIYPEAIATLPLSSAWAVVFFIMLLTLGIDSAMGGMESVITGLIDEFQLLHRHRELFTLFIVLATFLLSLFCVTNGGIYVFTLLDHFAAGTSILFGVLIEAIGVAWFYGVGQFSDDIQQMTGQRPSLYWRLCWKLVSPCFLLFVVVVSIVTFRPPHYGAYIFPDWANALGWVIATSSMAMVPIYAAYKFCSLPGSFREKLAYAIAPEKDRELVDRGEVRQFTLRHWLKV
Sequence of D(1A) dopamine receptor (P21728 whole entry): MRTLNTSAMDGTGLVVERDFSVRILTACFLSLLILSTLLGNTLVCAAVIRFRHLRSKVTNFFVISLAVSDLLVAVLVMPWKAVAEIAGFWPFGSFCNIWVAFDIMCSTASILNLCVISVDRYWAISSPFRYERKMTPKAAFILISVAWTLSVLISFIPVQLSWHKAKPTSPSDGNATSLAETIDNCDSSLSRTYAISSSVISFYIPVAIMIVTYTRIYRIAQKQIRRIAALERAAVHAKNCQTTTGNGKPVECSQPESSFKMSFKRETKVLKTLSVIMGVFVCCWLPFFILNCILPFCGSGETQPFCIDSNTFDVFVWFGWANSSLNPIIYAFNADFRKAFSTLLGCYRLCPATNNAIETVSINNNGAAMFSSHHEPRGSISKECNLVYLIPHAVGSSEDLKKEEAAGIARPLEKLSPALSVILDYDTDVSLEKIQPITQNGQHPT
Sequence of Cannabinoid receptor 1 (P21554 whole entry): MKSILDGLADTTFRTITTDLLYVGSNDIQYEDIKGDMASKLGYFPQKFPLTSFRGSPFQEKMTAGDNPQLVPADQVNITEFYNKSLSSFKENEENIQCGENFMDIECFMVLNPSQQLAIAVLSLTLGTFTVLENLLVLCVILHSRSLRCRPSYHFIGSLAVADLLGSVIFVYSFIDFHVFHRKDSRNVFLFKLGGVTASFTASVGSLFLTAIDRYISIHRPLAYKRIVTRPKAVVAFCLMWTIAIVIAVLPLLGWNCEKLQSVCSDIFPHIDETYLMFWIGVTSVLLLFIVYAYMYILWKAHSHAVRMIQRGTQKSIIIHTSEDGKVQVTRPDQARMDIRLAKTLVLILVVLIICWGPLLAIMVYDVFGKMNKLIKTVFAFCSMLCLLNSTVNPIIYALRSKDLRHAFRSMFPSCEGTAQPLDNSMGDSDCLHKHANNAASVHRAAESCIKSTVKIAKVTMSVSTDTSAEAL
Sequence of Histamine H2 receptor (P25021 whole entry): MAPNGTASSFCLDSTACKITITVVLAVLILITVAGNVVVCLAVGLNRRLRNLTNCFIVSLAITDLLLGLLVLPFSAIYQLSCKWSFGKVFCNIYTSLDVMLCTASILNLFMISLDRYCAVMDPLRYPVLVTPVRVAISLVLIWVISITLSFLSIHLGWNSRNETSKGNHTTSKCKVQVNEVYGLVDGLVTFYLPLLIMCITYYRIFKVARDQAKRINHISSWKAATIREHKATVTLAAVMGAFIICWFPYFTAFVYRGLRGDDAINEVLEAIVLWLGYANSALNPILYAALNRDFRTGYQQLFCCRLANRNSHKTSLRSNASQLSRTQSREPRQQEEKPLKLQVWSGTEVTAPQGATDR
Sequence of Vasopressin V2 receptor (P30518 whole entry): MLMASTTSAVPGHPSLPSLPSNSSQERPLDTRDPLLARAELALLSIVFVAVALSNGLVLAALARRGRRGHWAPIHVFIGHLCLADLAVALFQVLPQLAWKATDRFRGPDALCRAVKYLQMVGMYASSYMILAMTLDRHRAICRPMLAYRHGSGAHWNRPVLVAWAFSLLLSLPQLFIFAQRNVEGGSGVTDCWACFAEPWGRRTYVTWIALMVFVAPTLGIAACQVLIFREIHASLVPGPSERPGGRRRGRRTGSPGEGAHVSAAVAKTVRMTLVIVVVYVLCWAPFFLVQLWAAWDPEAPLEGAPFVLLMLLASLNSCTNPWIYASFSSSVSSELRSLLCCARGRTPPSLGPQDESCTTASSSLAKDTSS
Sequence of Gamma-aminobutyric acid receptor subunit alpha-1 (P62813 whole entry): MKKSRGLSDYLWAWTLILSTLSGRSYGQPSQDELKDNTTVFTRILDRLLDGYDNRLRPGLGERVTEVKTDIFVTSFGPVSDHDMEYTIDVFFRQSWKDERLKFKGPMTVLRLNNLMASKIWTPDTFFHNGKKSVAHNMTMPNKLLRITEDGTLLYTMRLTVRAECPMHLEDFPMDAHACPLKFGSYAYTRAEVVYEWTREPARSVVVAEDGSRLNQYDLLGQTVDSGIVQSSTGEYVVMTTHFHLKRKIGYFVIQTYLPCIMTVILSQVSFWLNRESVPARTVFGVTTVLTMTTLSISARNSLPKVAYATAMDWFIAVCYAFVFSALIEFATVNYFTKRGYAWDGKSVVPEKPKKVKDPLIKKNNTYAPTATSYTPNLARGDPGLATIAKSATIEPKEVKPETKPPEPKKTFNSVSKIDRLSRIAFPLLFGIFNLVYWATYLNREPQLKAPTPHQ

Molecule | AC50 [1] | AC50 (Vasopressin V2 receptor) | AC50 [2] | AC50 (Cannabinoid receptor 1) | AC50 (D(1A) dopamine receptor) | AC50 [3] | AC50 (Histamine H2 receptor) | AC50 [4] | AC50 ([5]; read-out: AC50) | AC50 [6] | AC50 [7] | AC50 [8] | AC50 ([5]; human, cellular components)
Nc1ccc(C(=O)O)c(O)c1 [AMINOSALICYLIC ACID] | > 30 µM | > 30 µM | > 30 µM | > 30 µM | > 30 µM | > 30 µM | > 30 µM | > 30 µM | > 30 µM | > 30 µM | > 30 µM | – | –
C=CC1=C(C(=O)O)N2C(=O)[C@@H](NC(=O)/C(=N\OCC(=O)O)c3csc(N)n3)[C@H]2SC1 [CEFIXIME] | > 30 µM | > 30 µM | > 30 µM | > 30 µM | > 30 µM | – | > 30 µM | – | > 30 µM | > 30 µM | > 30 µM | > 30 µM | –
CO[C@@]1(NC(=O)Cc2cccs2)C(=O)N2C(C(=O)O)=C(COC(N)=O)CS[C@@H]21 [CEFOXITIN] | > 30 µM | > 30 µM | > 30 µM | > 30 µM | > 30 µM | > 30 µM | > 30 µM | > 30 µM | > 30 µM | > 30 µM | – | > 30 µM | –
COCCOC(=O)C1=C(C)NC(C)=C(C(=O)OC/C=C/c2ccccc2)C1c1cccc([N+](=O)[O-])c1 (stereo not drawn) [CILNIDIPINE] | > 30 µM | > 30 µM | > 30 µM | > 30 µM | > 30 µM | > 30 µM | > 30 µM | > 30 µM | > 30 µM | > 30 µM | – | 26 µM | –
C[C@@H]1C[C@H]2[C@@H]3C[C@H](F)C4=CC(=O)C=C[C@]4(C)[C@@]3(F)[C@@H](O)C[C@]2(C)[C@H]1C(=O)CO [DIFLUCORTOLONE] | > 30 µM | – | – | – | – | – | – | – | – | > 30 µM | – | – | –
CC1(C)C(/C=C/C=C/C=C/C=C2\N(CCCCS(=O)(=O)O)c3ccc4ccccc4c3C2(C)C)=[N+](CCCCS(=O)(=O)[O-])c2ccc3ccccc3c21 [INDOCYANINE GREEN ACID FORM] | 9.7 µM | > 30 µM | 9.2 µM | – | – | 18 µM | 24 µM | – | 6.5 µM | – | – | 11 µM | –
CCCC[C@H](C)C[C@H](O)/C=C/[C@H]1[C@H](O)CC(=O)[C@@H]1CCCC/C=C/C(=O)O [LIMAPROST] | > 30 µM | > 30 µM | > 30 µM | > 30 µM | > 30 µM | – | > 30 µM | > 30 µM | > 30 µM | > 30 µM | > 30 µM | > 30 µM | –
CCOC(=O)Nc1ccc2c(c1)N(C(=O)CCN1CCOCC1)c1ccccc1S2 [MORICIZINE] | > 30 µM | > 30 µM | > 30 µM | > 30 µM | > 30 µM | > 30 µM | > 30 µM | > 30 µM | 19 µM | > 30 µM | – | > 30 µM | –
CCn1cc(C(=O)O)c(=O)c2cc(F)c(N3CCN(C)CC3)cc21 [PEFLOXACIN] | > 30 µM | > 30 µM | > 30 µM | > 30 µM | > 30 µM | > 30 µM | > 30 µM | > 30 µM | – | > 30 µM | – | > 30 µM | –
C[n+]1ccccc1/C=N/O [PRALIDOXIME] | > 30 µM | – | – | > 30 µM | > 30 µM | > 30 µM | > 30 µM | > 30 µM | > 30 µM | – | > 30 µM | – | –
Cc1ccc2c(-c3ccccc3)nc(=O)n(C(C)C)c2c1 [PROQUAZONE] | > 30 µM | > 30 µM | > 30 µM | > 30 µM | > 30 µM | > 30 µM | > 30 µM | > 30 µM | > 30 µM | > 30 µM | > 30 µM | – | –
CN1CCN(c2c(F)cc3c(=O)c(C(=O)O)cn4c3c2SCC4)CC1 [RUFLOXACIN] | > 30 µM | > 30 µM | > 30 µM | > 30 µM | > 30 µM | > 30 µM | > 30 µM | > 30 µM | > 30 µM | > 30 µM | > 30 µM | – | –
CN1c2ccccc2C(NCCCCCCC(=O)O)c2ccc(Cl)cc2S1(=O)=O (stereo not drawn) [TIANEPTINE] | > 30 µM | > 30 µM | > 30 µM | > 30 µM | > 30 µM | > 30 µM | > 30 µM | > 30 µM | – | > 30 µM | – | – | –
COc1cc2nccc(Oc3ccc(NC(=O)Nc4cc(C)on4)c(Cl)c3)c2cc1OC [TIVOZANIB] | > 30 µM | – | – | – | – | – | – | – | > 1 µM | 2.6 µM | 19 µM | > 3 µM | –
COc1cc2c(Nc3ccc(Br)cc3F)ncnc2cc1OCC1CCN(C)CC1 [VANDETANIB] | 0.856 µM | > 30 µM | > 10 µM | > 30 µM | > 30 µM | > 30 µM | > 30 µM | > 30 µM | – | 14 µM | 22 µM | > 30 µM | –
COc1ccc(C(CN(C)C)C2(O)CCCCC2)cc1 (stereo not drawn) [VENLAFAXINE] | > 10 µM | > 30 µM | > 30 µM | – | > 30 µM | > 10 µM | > 30 µM | > 30 µM | > 30 µM | – | > 30 µM | > 30 µM | –
N#C[C@@H]1CCCN1C(=O)CNC12CC3CC(CC(O)(C3)C1)C2 [VILDAGLIPTIN] | > 30 µM | > 30 µM | > 30 µM | – | > 30 µM | > 30 µM | > 30 µM | > 30 µM | > 30 µM | > 30 µM | > 30 µM | > 30 µM | –
COLISTIN | > 30 µM | – | – | > 30 µM | > 30 µM | > 30 µM | > 30 µM | > 30 µM | – | – | > 30 µM | – | > 30 µM

— ChEMBL document CHEMBL5291721, “A preclinical secondary pharmacology resource illuminates target-adverse drug reaction associations of marketed drugs” (Nat Commun, 2023)
